Activity calls are given as the source filed them. Cut-off read from the data, not from the text of the source, for most assays here: actives have a measured IC50 and inactives only a lower limit.
What was measured:
[1] = biological target: T1, Serine/threonine-protein phosphatase (Homo sapiens, UniProt Q9BPW0); assay: inhibition of protein phosphatase 5 activity – biochemical, fluorescence, dose response (AID 2395)
T1 sequence (Q9BPW0 whole entry): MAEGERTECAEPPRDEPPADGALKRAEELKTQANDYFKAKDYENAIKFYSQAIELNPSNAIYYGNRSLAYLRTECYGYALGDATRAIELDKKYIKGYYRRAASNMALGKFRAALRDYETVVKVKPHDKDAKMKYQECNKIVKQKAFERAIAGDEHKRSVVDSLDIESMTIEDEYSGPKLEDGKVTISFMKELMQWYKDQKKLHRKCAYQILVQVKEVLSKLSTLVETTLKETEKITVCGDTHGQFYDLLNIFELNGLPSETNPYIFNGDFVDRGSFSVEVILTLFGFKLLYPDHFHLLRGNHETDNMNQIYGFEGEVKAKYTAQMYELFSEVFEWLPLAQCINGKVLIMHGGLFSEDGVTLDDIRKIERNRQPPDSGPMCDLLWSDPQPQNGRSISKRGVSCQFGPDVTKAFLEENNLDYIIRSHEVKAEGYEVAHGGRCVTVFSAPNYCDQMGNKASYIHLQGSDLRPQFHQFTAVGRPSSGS

[2] = biological target: SUMO-activating enzyme (Homo sapiens, UniProt Q9UBT2); assay: blockers of SAE1/SAE2–UBC9 SUMO transfer – biochemical, HTRF, uHTS, primary screen (AID 2006); type: protein-complex assay
SUMO-activating enzyme, sequence (Q9UBE0 whole entry): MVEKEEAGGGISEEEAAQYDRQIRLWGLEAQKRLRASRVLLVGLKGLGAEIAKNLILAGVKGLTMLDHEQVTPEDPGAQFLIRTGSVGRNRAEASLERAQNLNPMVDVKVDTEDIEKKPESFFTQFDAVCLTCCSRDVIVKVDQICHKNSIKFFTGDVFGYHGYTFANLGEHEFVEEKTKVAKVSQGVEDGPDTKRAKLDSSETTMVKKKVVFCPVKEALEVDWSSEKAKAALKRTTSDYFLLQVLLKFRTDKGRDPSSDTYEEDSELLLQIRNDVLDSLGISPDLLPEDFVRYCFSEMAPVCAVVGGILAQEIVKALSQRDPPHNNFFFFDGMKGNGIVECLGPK
SUMO-activating enzyme, sequence (Q9UBT2 whole entry): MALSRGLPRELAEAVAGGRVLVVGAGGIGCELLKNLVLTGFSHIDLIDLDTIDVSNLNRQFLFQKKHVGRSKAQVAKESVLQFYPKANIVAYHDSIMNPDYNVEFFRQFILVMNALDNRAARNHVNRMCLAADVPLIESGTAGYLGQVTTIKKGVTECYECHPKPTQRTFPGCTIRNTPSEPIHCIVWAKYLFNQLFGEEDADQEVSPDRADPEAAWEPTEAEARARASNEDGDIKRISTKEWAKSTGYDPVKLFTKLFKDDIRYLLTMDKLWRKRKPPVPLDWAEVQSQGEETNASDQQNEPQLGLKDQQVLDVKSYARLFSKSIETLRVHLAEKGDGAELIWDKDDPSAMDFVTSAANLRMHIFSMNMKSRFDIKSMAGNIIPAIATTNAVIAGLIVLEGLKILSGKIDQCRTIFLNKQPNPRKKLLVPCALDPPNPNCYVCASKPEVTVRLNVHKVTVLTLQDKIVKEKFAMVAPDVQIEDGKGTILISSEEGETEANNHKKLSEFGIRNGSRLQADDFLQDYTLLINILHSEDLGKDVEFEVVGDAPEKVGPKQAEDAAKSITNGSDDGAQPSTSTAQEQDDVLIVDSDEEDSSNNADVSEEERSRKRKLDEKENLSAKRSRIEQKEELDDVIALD

[3] = biological target: 72 kDa type IV collagenase (Homo sapiens, UniProt P08253); assay: Dose Response validation of uHTS RPN11 inhibitor hits using a MMP-2 Fluorescence assay.; type: functional
72 kDa type IV collagenase, sequence (P08253 whole entry): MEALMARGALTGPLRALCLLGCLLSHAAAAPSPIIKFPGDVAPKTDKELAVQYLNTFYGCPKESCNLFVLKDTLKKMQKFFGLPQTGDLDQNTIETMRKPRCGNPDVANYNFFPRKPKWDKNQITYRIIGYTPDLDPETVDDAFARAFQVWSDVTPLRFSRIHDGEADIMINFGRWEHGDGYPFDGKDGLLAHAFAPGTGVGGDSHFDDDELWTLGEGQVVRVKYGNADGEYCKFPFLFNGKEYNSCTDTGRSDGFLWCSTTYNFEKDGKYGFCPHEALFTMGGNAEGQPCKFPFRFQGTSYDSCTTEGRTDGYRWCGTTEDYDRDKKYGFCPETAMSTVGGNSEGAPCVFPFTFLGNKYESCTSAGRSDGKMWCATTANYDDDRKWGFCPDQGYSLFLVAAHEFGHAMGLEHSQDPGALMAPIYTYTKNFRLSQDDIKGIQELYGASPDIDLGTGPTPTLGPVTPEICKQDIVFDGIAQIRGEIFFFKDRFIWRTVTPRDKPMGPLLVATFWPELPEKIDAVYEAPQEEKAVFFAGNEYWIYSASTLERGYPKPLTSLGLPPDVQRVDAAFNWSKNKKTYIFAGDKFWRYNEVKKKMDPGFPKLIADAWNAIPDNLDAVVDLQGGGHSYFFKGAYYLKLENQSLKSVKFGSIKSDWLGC

[4] = biological target: T2, Tyrosine-protein phosphatase non-receptor type 22 (Homo sapiens, UniProt Q9Y2R2); type: functional;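 note: confirmatory dose-response retest of primary uHTS hits for inhibition of LYP phosphatase, measured by a fluorescence intensity read-out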
T2 sequence (Q9Y2R2 whole entry): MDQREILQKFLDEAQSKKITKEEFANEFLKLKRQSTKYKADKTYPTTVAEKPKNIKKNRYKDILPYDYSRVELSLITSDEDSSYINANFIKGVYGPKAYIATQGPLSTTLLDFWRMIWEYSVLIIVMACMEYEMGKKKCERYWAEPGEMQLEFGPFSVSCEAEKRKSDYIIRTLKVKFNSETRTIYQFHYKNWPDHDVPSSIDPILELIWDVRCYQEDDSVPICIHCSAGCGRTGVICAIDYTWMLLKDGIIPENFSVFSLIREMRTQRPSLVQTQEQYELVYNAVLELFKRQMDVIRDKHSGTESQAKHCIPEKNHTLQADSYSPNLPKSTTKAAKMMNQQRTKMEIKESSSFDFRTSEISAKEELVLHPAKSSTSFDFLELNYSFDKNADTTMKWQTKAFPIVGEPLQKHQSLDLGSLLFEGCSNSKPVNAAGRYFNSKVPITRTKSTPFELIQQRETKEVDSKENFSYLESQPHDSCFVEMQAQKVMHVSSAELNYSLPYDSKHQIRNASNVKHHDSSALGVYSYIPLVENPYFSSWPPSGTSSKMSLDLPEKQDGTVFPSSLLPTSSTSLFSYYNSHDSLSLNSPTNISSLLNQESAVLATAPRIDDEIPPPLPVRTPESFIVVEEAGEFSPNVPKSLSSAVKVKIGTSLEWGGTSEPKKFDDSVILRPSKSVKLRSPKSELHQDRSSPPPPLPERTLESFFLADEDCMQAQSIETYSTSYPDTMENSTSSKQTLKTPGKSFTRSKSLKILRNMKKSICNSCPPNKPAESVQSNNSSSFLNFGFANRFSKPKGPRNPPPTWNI

[5] = biological target: T3, Dual specificity protein phosphatase 3 (Homo sapiens, UniProt P51452); assay: VHR1 phosphatase inhibitors, primary screen, biochemical, absorbance, uHTS (AID 1654)
T3 sequence (P51452 whole entry): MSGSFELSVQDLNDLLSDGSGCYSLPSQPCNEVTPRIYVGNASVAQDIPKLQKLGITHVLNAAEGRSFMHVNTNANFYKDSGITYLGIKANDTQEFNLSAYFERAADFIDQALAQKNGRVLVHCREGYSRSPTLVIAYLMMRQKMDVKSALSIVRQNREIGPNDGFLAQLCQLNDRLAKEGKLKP

[6] = biological target: T3, Dual specificity protein phosphatase 3; assay: SAR VHR1 Fluorescent Assay for In Vitro dose response studies Set 2. [Related pubchem assays (depositor defined):AID1654, AID1661, AID1878]; type: functional
[7] = biological target: T4, Tyrosine-protein phosphatase non-receptor type 7 (Homo sapiens, UniProt P35236); assay: redox-active compounds inhibiting HePTP phosphatase – biochemical, fluorescence, mechanism study (AID 2068); type: functional
T4 sequence (P35236 whole entry): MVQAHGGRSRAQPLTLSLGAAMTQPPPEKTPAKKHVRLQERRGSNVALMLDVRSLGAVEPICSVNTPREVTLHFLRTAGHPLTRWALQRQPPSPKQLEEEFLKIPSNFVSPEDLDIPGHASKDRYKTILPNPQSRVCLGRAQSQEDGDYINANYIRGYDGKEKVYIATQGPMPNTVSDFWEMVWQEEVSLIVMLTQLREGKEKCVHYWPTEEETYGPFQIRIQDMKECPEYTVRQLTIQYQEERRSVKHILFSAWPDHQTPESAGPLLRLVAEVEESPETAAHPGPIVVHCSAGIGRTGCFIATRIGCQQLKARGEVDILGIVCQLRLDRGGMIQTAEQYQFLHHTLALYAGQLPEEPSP

[8] = biological target: T3, Dual specificity protein phosphatase 3; assay: SAR VHR1 absorbance Assay for In Vitro dose response studies. [Related pubchem assays (depositor defined):AID1654, AID1661, AID1878, AID1992, AID2004]
[9] = biological target: T5, Replicative DNA helicase DnaB (Mycobacterium tuberculosis, UniProt P9WMR3); assay: DnaB intein splicing inhibitors, dose response, biochemical, cell-free fluorescence (AID 449749); type: functional
T5 sequence (P9WMR3 whole entry): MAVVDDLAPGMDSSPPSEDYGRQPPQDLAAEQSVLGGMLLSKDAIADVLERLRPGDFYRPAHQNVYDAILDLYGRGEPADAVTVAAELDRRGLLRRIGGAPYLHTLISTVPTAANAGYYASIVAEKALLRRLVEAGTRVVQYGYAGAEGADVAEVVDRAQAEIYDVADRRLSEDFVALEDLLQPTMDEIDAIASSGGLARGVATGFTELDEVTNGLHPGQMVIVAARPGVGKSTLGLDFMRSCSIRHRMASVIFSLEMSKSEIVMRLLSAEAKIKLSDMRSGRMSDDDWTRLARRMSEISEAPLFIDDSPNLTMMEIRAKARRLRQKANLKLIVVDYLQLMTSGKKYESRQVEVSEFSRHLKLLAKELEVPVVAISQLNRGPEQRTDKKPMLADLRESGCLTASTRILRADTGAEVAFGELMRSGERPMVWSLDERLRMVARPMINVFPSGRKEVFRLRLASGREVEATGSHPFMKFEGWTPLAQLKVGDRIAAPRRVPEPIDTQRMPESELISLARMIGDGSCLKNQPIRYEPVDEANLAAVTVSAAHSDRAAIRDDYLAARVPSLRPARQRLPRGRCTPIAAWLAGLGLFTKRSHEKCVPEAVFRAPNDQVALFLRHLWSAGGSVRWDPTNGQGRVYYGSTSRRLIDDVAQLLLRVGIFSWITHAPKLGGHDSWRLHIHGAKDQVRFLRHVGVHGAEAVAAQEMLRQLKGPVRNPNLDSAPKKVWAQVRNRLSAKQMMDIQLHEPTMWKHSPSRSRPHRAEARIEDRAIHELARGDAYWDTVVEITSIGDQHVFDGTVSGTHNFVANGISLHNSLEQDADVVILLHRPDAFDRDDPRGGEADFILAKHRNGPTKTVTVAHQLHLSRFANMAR

C=CCn1c(NC(=O)c2ccccc2Cl)c(C#N)c2nc3ccccc3nc21
active: IC50 [1] > 7.45 µM | IC50 [2] 2.63 µM

CCOC(=O)c1sc2nc3c(SCC(=O)O)cc(C(=O)c4ccccc4O)cn3c(=O)c2c1C
active: IC50 [3] 0.821 µM | IC50 [4] < 1.24 µM | IC50 [5] 4.64 µM | IC50 [6] 0.218 µM | IC50 [7] 0.105 µM | IC50 [8] 1.24 µM

CCOC(=O)c1ccc(Nc2cc3ccccc3c(O)n2)cc1
active: AC50 [9] 11.1 µM
